The test system of test [1] is Staphylococcus aureus. The test can be described thus: Antibacterial activity against TMP-resistant Staphylococcus aureus expressing DHFR F99Y mutant after 18 to 24 hrs by alamar Blue assay. The class given is functional. On the technique in general: Alamar Blue is a resazurin reagent that responds to reducing activity.
For test [2], the system named is Staphylococcus aureus. The test can be described thus: Antibacterial activity against Staphylococcus aureus ATCC 13709 after 18 to 24 hrs by alamar Blue assay. The test is classed as functional.
Test [3] has as its system Staphylococcus aureus. The test can be described thus: Antibacterial activity against Staphylococcus aureus ATCC 13709 after 18 to 24 hrs by alamar Blue assay in presence of 20% heat inactivated mouse serum. The test is classed as functional.
The nature of test [4]: Selectivity ratio of Ki for human DHFR to Ki for Staphylococcus aureus DHFR.
The target in test [5] is T1, Dihydrofolate reductase (Homo sapiens, UniProt P00374).
T1 sequence (P00374 whole entry): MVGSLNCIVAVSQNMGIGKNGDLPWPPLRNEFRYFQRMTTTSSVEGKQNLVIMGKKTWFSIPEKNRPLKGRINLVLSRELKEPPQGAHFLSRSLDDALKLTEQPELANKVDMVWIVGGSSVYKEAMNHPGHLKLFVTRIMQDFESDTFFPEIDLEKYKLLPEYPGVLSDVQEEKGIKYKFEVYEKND
The test can be described thus: Inhibition of human DHFR using dihydrofolate as substrate preincubated for 10 mins followed by substrate addition by spectrophotometric analysis in presence of NADPH.

The target in test [6] is Dihydrofolate reductase (Staphylococcus aureus, UniProt P0A017). The test can be described thus: Inhibition of Staphylococcus aureus DHFR using dihydrofolate as substrate preincubated for 10 mins followed by substrate addition by spectrophotometric analysis in presence of NADPH.
Dihydrofolate reductase (Staphylococcus aureus, UniProt P0A017), sequence (P0A017 whole entry): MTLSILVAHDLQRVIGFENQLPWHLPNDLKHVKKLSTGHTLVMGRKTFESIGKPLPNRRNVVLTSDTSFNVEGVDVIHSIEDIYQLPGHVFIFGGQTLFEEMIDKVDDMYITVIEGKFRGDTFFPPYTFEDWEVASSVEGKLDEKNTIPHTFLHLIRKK
Test [7] has as its system Streptococcus pneumoniae. The test can be described thus: Antibacterial activity against Streptococcus pneumoniae ATCC 49619 after 18 to 24 hrs by alamar Blue assay. The class given is functional.
The subject of test [8] is Streptococcus pneumoniae. In words: Antibacterial activity against Streptococcus pneumoniae ATCC 700674 after 18 to 24 hrs by alamar Blue assay. The test is classed as functional.
Test [9] has as its system Streptococcus pneumoniae. The test can be described thus: Antibacterial activity against Streptococcus pneumoniae ATCC 700676 after 18 to 24 hrs by alamar Blue assay. The test is classed as functional.
Test [10] concerns Streptococcus pneumoniae. The test can be described thus: Antibacterial activity against Streptococcus pneumoniae ATCC 700669 after 18 to 24 hrs by alamar Blue assay. The class given is functional.
In test [11] the test system is Streptococcus pneumoniae. The test can be described thus: Antibacterial activity against Streptococcus pneumoniae ATCC 700671 after 18 to 24 hrs by alamar Blue assay. The class given is functional.
Test [12] has as its system Streptococcus pneumoniae. The test can be described thus: Antibacterial activity against Streptococcus pneumoniae ATCC 700677 after 18 to 24 hrs by alamar Blue assay. The test is classed as functional.
The subject of test [13] is Streptococcus pneumoniae. The test can be described thus: Antibacterial activity against Streptococcus pneumoniae ATCC 700675 after 18 to 24 hrs by alamar Blue assay. The class given is functional.
In test [14] the test system is Streptococcus pneumoniae. The test can be described thus: Antibacterial activity against Streptococcus pneumoniae after 18 to 24 hrs by alamar Blue assay. The test is classed as functional.
Test [15] relates to Streptococcus pneumoniae. The test can be described thus: Antibacterial activity against Streptococcus pneumoniae ATCC BAA-255 after 18 to 24 hrs by alamar Blue assay. The class given is functional.
The subject of test [16] is Streptococcus pneumoniae. In words: Antibacterial activity against Streptococcus pneumoniae ATCC 51916 after 18 to 24 hrs by alamar Blue assay. The test is classed as functional.
Test [17] concerns Streptococcus pneumoniae. In words: Antibacterial activity against Streptococcus pneumoniae ATCC 700904 after 18 to 24 hrs by alamar Blue assay. The test is classed as functional.

SMILES strings stand for the structures. Values after ≈ are worked out from the molar mass of the structure shown.

Consider `Cc1cc2nc(-c3ccoc3)n(-c3ccc4c(N)nc(N)nc4c3)c2cc1C`, for which the results for the MIC in [1], in test [2] and in test [3] were 2 µg/mL (≈ 5.4 µM), 0.06 µg/mL (≈ 0.162 µM) and 1 µg/mL, respectively. Also, the Ratio Ki in test [4] was found to be 90000. For the same compound, the values for the inhibition constant (Ki) in [5] and in test [6] were 723 nM and 0.008 nM, respectively.

Take `Cc1cc2nc(C3CC3)n(-c3ccc4c(N)nc(N)nc4c3)c2cc1C`: the MIC amounted to 8 µg/mL (≈ 23.2 µM) in test [1] and 0.5 µg/mL (≈ 1.45 µM) in [2].

As to `Cc1cc2nc(-c3nccs3)n(-c3cc4nc(N)nc(N)c4cc3C)c2cc1C`, the MIC in test [1] amounted to 0.125 µg/mL (≈ 0.311 µM); in test [2], 0.03 µg/mL (≈ 0.0747 µM); in test [3], 0.06 µg/mL. Moreover, in [4], the Ratio Ki was 97.

In test [1], `Cc1cc2nc(N3CCOCC3)n(-c3ccc4c(N)nc(N)nc4c3)c2cc1C` had an MIC above 64 µg/mL.

Consider `Cc1cc2nc(C3CCOC3)n(-c3ccc4c(N)nc(N)nc4c3)c2cc1C` (centres undefined), for which the minimum inhibitory concentration (MIC) in [1] was above 64 µg/mL; in [2], 8 µg/mL (≈ 21.4 µM); in [3], 64 µg/mL. Further, the inhibitory constant (Ki) in test [5] is above 5000 nM; in test [6] it was 4.2 nM.

In the case of `COc1cc(Cc2cnc(N)nc2N)cc(OC)c1OC` [TRIMETHOPRIM], the minimal inhibitory concentration (MIC) in test [7] is 4 µg/mL (≈ 13.8 µM); in [8], above 64 µg/mL; in test [9] it was 4 µg/mL (≈ 13.8 µM); in [10] it was above 64 µg/mL; in [11], above 64 µg/mL; in test [12], 4 µg/mL (≈ 13.8 µM). Besides, the minimal inhibitory concentration (MIC) in test [13] is 8 µg/mL (≈ 27.6 µM); in test [15], 0.5 µg/mL (≈ 1.72 µM); in [16], above 64 µg/mL; in test [17], above 64 µg/mL. The MIC50 in test [14] is 8 µg/mL (≈ 27.6 µM). The compound also returned an MIC90 in [14] above 64 µg/mL.

In the case of `Cc1cc2nc(-c3cscn3)n(-c3ccc4c(N)nc(N)nc4c3)c2cc1C`, the MIC in test [1] was determined as 16 µg/mL (≈ 41.3 µM); in [2], 2 µg/mL (≈ 5.16 µM); in test [3] it was 2 µg/mL. The Ratio Ki in [4] turned out to be 11500. Further, the Ki in test [5] stood at 1100 nM; in test [6], 0.096 nM.

Take `Cc1cc2nc(-c3ccco3)n(-c3ccc4c(N)nc(N)nc4c3)c2cc1C`: the figures for the minimal inhibitory concentration (MIC) in test [1], in [2] and in test [3] were 1 µg/mL (≈ 2.7 µM), 0.015 µg/mL (≈ 0.0405 µM) and 0.125 µg/mL, respectively. Further, the inhibitory constant (Ki) in [5] came to 943 nM; in test [6], 0.007 nM.

For the compound `Cc1cc2nc(-c3nccs3)n(-c3cc4nc(N)nc(N)c4cc3Cl)c2cc1C`, the minimum inhibitory concentration (MIC) was 0.25 µg/mL (≈ 0.593 µM) in test [1]; 0.125 µg/mL (≈ 0.296 µM) in test [7]; 4 µg/mL (≈ 9.48 µM) in test [8]; at most 0.5 µg/mL in test [9]; 4 µg/mL (≈ 9.48 µM) in test [10]; 0.125 µg/mL (≈ 0.296 µM) in test [2]. Also, the minimal inhibitory concentration (MIC) in test [11] is 4 µg/mL (≈ 9.48 µM); in test [12], at most 0.5 µg/mL; in [13] it was at most 0.5 µg/mL; in test [15], at most 0.5 µg/mL; in test [16], at most 0.5 µg/mL; in test [17], 1 µg/mL (≈ 2.37 µM). In test [4], the Ratio Ki was found to be 690. The same compound had an MIC50 in test [14] of at most 0.5 µg/mL. Further, the MIC90 in test [14] was found to be 4 µg/mL (≈ 9.48 µM).

Turning to `COc1cc2nc(-c3ccccn3)n(-c3ccc4c(N)nc(N)nc4c3)c2cc1OC`, the figures for the minimal inhibitory concentration (MIC) in test [1], in test [2] and in test [3] were above 64 µg/mL, 4 µg/mL (≈ 9.67 µM) and 16 µg/mL, respectively. Also, the Ratio Ki in test [4] stood at 2300. Besides, the Ki in test [5] came out at 841 nM; in test [6], 0.36 nM.

As to `Cc1cc2nc(C3CCCO3)n(-c3ccc4c(N)nc(N)nc4c3)c2cc1C` (centres undefined), the MIC in test [1] was 16 µg/mL (≈ 42.7 µM); in test [2], 0.5 µg/mL (≈ 1.34 µM); in [3] it was above 16 µg/mL. The Ki was 749 nM in [5] and 0.2 nM in test [6].

As to `COc1ccc(-c2nc3cc(C)c(C)cc3n2-c2ccc3c(N)nc(N)nc3c2)cc1`, the values for the minimum inhibitory concentration (MIC) in test [1], in test [2] and in test [3] were above 64 µg/mL, 2 µg/mL (≈ 4.87 µM) and 8 µg/mL, respectively. Further, the inhibition constant Ki in test [5] was 2300 nM; in [6], 0.34 nM.

Regarding `COc1cc2nc(-c3ccco3)n(-c3cc4nc(N)nc(N)c4cc3Cl)c2cc1OC`, the figures for the MIC in [1], in [2] and in test [3] were 8 µg/mL (≈ 18.3 µM), 0.5 µg/mL (≈ 1.14 µM) and 0.5 µg/mL, respectively. Besides, the inhibition constant Ki in test [5] was 610 nM; in test [6], 0.024 nM.

In the case of `Cc1cc2nc(-c3ccsc3)n(-c3ccc4c(N)nc(N)nc4c3)c2cc1C`, the MIC was 2 µg/mL (≈ 5.17 µM) in [1] and 0.03 µg/mL (≈ 0.0776 µM) in [2].

In general, MIC refers to the lowest concentration found to suppress growth. By Ki is commonly meant the equilibrium dissociation constant of an inhibitor or competing ligand from its target. By MIC50 is commonly meant an inhibitory concentration at the 50% level, which refers to growth in some studies and to a panel of isolates in others. Read a low MIC50 as higher susceptibility. Usually MIC90 stands for an inhibitory concentration at the 90% level, which refers to growth in some studies and to a panel of isolates in others. High values mean lower susceptibility, low ones higher susceptibility.

Source of the values: ChEMBL document CHEMBL3124778, “Structure-based design of new dihydrofolate reductase antibacterial agents: 7-(benzimidazol-1-yl)-2,4-diaminoquinazolines” (J Med Chem, 2014).
